{
  "source": "patent US5840867A",
  "about": "“Aptamer analogs specific for biomolecules” (Gilead Sciences, Inc., priority 1994, dated 1998)",
  "key": {"thrombin [1]": {"system": "thrombin", "assay": "Clotting time for thrombin-catalyzed conversion of fibrinogen to fibrin", "format": "biochemical", "details": "7-mer at 20 μM; thrombin 10 nM; thrombin alone 24 sec", "experimental": "Clotting time for the thrombin-catalyzed conversion of fibrinogen (2.0 mg/ml in selection buffer) to fibrin at 37° C. was measured using a precision coagulation timer apparatus (Becton-Dickinson, Cat. Nos. 64015, 64019, 64020). Thrombin (10 nM) incubated with fibrinogen alone clotted in 40 sec, thrombin incubated with fibrinogen and P1 nuclease (Boehringer-Mannheim, Indianapolis, Ind.) clotted in 39 sec, thrombin incubated with fibrinogen and aptamer clone #5 (200 nM) clotted in 115 sec, and thrombin incubated with fibrinogen, clone #5 (200 nM) and P1 nuclease clotted in 40 sec. All incubations were carried out at 37° C. using reagents prewarmed to 37° C. Aptamer DNA or, when present, P1 nuclease, was added to the fibrinogen solution prior to addition of thrombin.\nInhibition of thrombin activity was studied using a consensus-related sequence 7-mer, 5' GGTTGGG 3' (SEQ ID NO:15), or a control 7-mer with the same base composition but different sequence (5' GGGGGTT 3' ) (SEQ ID NO:16). Clotting times were measured using the timer apparatus as above. The thrombin clotting time in this experiment was 24 sec using thrombin alone (10 nM), 26 sec with thrombin and the control sequence at 20 μM and 38 sec with thrombin plus the consensus sequence at 20 μM, indicating specificity for thrombin inhibition at the level of the 7-mer."}, "thrombin [2]": {"system": "thrombin", "assay": "Steady-state inhibition kinetics by clotting time assay (Ki)", "format": "biochemical", "details": "constant thrombin, varying fibrinogen concentration", "experimental": "The inhibition constants (Ki s) and mode of inhibition of the aptamer analogs were determined through steady-state inhibition kinetics using a clotting time assay with constant thrombin concentration and varying the fibrinogen concentration in the presence of aptamer, control DNA, or no DNA. […] The data is consistent with a non-competitive mode of inhibition."}, "rat blood coagulation": {"system": "rat blood coagulation", "assay": "APTT test after injection in rats", "format": "in vivo", "details": "5 minute time point", "experimental": "(§1) Thus, the 15-mer in blood withdrawn from rats 5 minutes post-injection was able to inhibit exogenously added human thrombin. […] The half-life of the 15-mer in rats appears to be about 5 minutes or less."}, "thrombin [3]": {"system": "thrombin", "assay": "Extent of thrombin inhibition with varying DNA concentration", "format": "biochemical", "from_the_text": "Independent verification of the Ki for the nonmodified 15-mer was made by determining the extent of thrombin inhibition with varying DNA concentration."}, "Half-life in rats": {"assay": "Half-life in rats", "format": "in vivo, rat", "details": "injected through catheter", "experimental": "(§2) A 15-mer single-stranded deoxynucleotide, 5' GGTTGGTGTGGTTGG 3' (SEQ ID NO:19), identified as a consensus sequence from 30 thrombin aptamer clones as described in Example 4 above was used. Young adult rats of mixed gender and strain were used. The animals were anesthetized and a diester of the 15-mer was injected through a catheter in 200 μl volumes (in 20 mM phosphate buffer, pH 7.4, 0.15M NaCl) at two concentrations, so that the final concentration of 15-mer in the blood was about 0.5 and 5.0 μM respectively, although the exact concentration depends on the volume of distribution which is unknown for this oligonucleotide. These values are 10 to 100 times greater than the human in vitro Kd value. No heparin was used for catheterization.\n(§3) At 0, 5, 20 and 60 minutes, blood was withdrawn from the animals (approx. 500 μl aliquots) and transferred into tubes containing 0.1 volume citrate buffer and centrifuged. Rat plasma was removed and tested in a thrombin clotting-time assay. Six animals were used at each concentration,and three animals were injected with the control carrier solution containing no 15-mer.\nas §1"}, "human thrombin": {"system": "human thrombin", "assay": "Thrombin clotting-time assay on rat plasma after injection", "format": "in vivo", "details": "rats, injected through catheter", "experimental": "as §2, §3"}},
  "data": [
    {"substance": "5' GGGGGTT 3' (chemistry not given here) [reference compound]", "values": [
      {"measurement": "Clotting time", "setting": "thrombin [1]", "result": 26, "unit": "s"}
    ]},
    {"substance": "5' GGTTGGG 3' (chemistry not given here)", "values": [
      {"measurement": "Clotting time", "setting": "thrombin [1]", "result": 38, "unit": "s"}
    ]},
    {"substance": "5' GGTTGGTGTGGTTGG 3'", "values": [
      {"measurement": "Ki", "setting": "thrombin [2]", "result": 20, "unit": "nM"},
      {"measurement": "APTT test", "setting": "rat blood coagulation", "result": "inhibited rat blood coagulation"},
      {"measurement": "concentration giving 50% inhibition of thrombin activity", "setting": "thrombin [3]", "result": "approximately the same concentration as the derived Ki"},
      {"measurement": "half-life", "setting": "Half-life in rats", "result": "≤ 5", "unit": "min"},
      {"measurement": "clotting time of rat plasma", "setting": "human thrombin; about 0.5 and 5.0 μM in blood, 5 minute time point", "result": "prolonged clotting time"},
      {"measurement": "activity in clotting-time assay of rat plasma", "setting": "human thrombin; 20 minutes", "result": "Little or no activity"}
    ]},
    {"substance": "G*G*T*T*G*G*T*G*T*G*G*T*T*G*G", "values": [
      {"measurement": "Ki", "setting": "thrombin [2]", "result": 280, "unit": "nM"}
    ]},
    {"substance": "GG(dU)TGGTGTGG(dU)TGG (DNA GGNTGGTGTGGNTGG) [15-mer thrombin aptamer analog with uracil (dU) in place of thymine]", "values": [
      {"measurement": "Ki", "setting": "thrombin [2]", "result": 80, "unit": "nM"}
    ]},
    {"substance": "GGTTGG(dU)G(dU)GGTTGG (DNA GGTTGGNGNGGTTGG; dU in place of thymine) [15-mer thrombin aptamer analog with uracil (dU) in place of thymine]", "values": [
      {"measurement": "Ki", "setting": "thrombin [2]", "result": 15, "unit": "nM"}
    ]},
    {"substance": "GGTTGGTGTGGTT*G*G", "values": [
      {"measurement": "Ki", "setting": "thrombin [2]", "result": 40, "unit": "nM"}
    ]},
    {"substance": "GGTTGGTGTGGTTGG#G#T (DNA GGTTGGTGTGGTTGGGT; MEA linkages, chemistry not fully specified) [closely related 17-mer thrombin aptamer analog; # indicates a MEA linkage]", "values": [
      {"measurement": "Ki", "setting": "thrombin [2]", "result": 35, "unit": "nM"}
    ]},
    {"substance": "GGTTGGTGTGGTU'GG (DNA GGTTGGTGTGGTNGG; 5-pentynyluracil, further chemistry not given here) [15-mer thrombin aptamer analog; U' indicates 5-pentynyluracil]", "values": [
      {"measurement": "Ki", "setting": "thrombin [2]", "result": 20, "unit": "nM"}
    ]}
  ]
}
